In US20040058957A1, “Benzothiophene derivatives and herbicidal compositions containing the same” (priority 2000, published 2004):

Assays:
Scirpus juncoides [1] = experiment: Submersion test, treatment 3 days after transplantation: herbicidal effect; assay type: in vivo; conditions: rated 30 days after application
Procedure: (§1) A mixture consisting of 57 parts by weight of talc and 40 parts by weight of bentonite as carrier and 3 parts by weight of sodium alkylbenzenesulfonate as surfactant was pulverized and mixed uniformly to obtain a carrier for wettable powder. Each herbicidal composition was prepared by uniformly pulverizing and mixing 90 parts by weight of the carrier for wettable powder and 10 parts by weight of the benzothiophene derivative produced in each example.
(§2) Seeds of Scirpus juncoides were sowed onto paddy field soil in a Wagner pot of 1/2000 are. Then, rice seedlings of 2.5 leaf stage were transplanted in the soil. Water was pored into the pot so as to submerge the soil at a depth of 3 cm. The pot was placed in a greenhouse maintained at 20 to 25° C. for vegetation. After 3 days from transplantation of the rice seedlings, a predetermined amount of the herbicidal composition prepared in the step [1] was applied to the pot. After 30 days from the application of the herbicidal composition, the herbicidal effect and injury to the paddy rice were determined.
(§3) The herbicidal effect and the injury to crops in the above tests (1) and (2) were evaluated based on the following ratings.
(§4) The degree of weed control (%) was calculated from the weights of the above-ground parts of fresh weeds in the treated area and the untreated area using the following equation:
(§5) Degree of weed control (%)=[1−(weight of weeds in treated area)/(weight of weeds in untreated area)]×100
(§6) The herbicidal effect was determined according to the following ratings: […]

paddy rice = experiment: Submersion test, treatment 3 days after transplantation: injury to paddy rice; assay type: in vivo; set-up: key: 0: No injury; 1: Substantially no injury; 2: Slight injury; 3: Some injury; 4: Remarkable injury; 5: Almost all crops dead; conditions: rated 30 days after application
Procedure: A mixture consisting of 57 parts by weight of talc and 40 parts by weight of bentonite as carrier and 3 parts by weight of sodium alkylbenzenesulfonate as surfactant was pulverized and mixed uniformly to obtain a carrier for wettable powder. […] Then, rice seedlings of 2.5 leaf stage were transplanted in the soil. Water was pored into the pot so as to submerge the soil at a depth of 3 cm. The pot was placed in a greenhouse maintained at 20 to 25° C. for vegetation. […] After 30 days from the application of the herbicidal composition, the herbicidal effect and injury to the paddy rice were determined. […] The injury to crops was evaluated according to the following ratings: [table]

Scirpus juncoides [2] = experiment: Submersion test, treatment 10 days after transplantation: herbicidal effect; assay type: in vivo; conditions: rated 30 days after application
Procedure: as §1
as §2, with “vegetation. After 10 days from” for “vegetation. After 3 days from”
as §3, §4, §5, §6

| SMILES | Herbicidal effect Scirpus juncoides (Scirpus juncoides [1]; application rate 100 g/ha) | Herbicidal effect Scirpus juncoides (Scirpus juncoides [1]; application rate 200 g/ha) | Injury paddy rice (paddy rice; application rate 100 g/ha) | Injury paddy rice (paddy rice; application rate 200 g/ha) | Herbicidal effect Scirpus juncoides (Scirpus juncoides [2]; application rate 100 g/ha) | Herbicidal effect Scirpus juncoides (Scirpus juncoides [2]; application rate 200 g/ha) | melting point |
| --- | --- | --- | --- | --- | --- | --- | --- |
| CSC1Cc2c(ccc(C(=O)C3C(=O)CCCC3=O)c2Cl)S1(=O)=O (stereo not drawn) [Compound No. 1, 4-chloro-2-methylthio-5-(1,3-dioxocyclohex-2-yl)carbonyl-2,3-dihydrobenzothiophene 1,1-dioxide] | 5 (90% or higher (almost completely dead)) | 5 (90% or higher (almost completely dead)) | 0 | 0 | 5 (90% or higher (almost completely dead)) | 5 (90% or higher (almost completely dead)) | 174.7 to 175.1 °C |
| CSC1Cc2c(ccc(C(=O)C3C(=O)CCCC3=O)c2C)S1(=O)=O (stereo not drawn) [Compound No. 10, 4-methyl-2-methylthio-5-(1,3-dioxocyclohex-2-yl)carbonyl-2,3-dihydrobenzothiophene 1,1-dioxide] | 5 (90% or higher (almost completely dead)) | 5 (90% or higher (almost completely dead)) | 0 | 0 | 5 (90% or higher (almost completely dead)) | 5 (90% or higher (almost completely dead)) | 192.7 to 193.2 °C |
| CSC1Cc2c(ccc(C(=O)C3C(=O)CCCC3=O)c2C(F)(F)F)S1(=O)=O (stereo not drawn) [Compound No. 11, 2-methylthio-4-trifluoromethyl-5-(1,3-dioxocyclohex-2-yl)carbonyl-2,3-dihydrobenzothiophene 1,1-dioxide] | 5 (90% or higher (almost completely dead)) | 5 (90% or higher (almost completely dead)) | 0 | 0 | 5 (90% or higher (almost completely dead)) | 5 (90% or higher (almost completely dead)) | 206.1 to 211.6 °C |
| COC(=O)C(C(=O)OC)C1=C(C(=O)c2ccc3c(c2Cl)CC(SC)S3(=O)=O)C(=O)CCC1 (stereo not drawn) [Compound No. 40, 4-chloro-2-methylthio-5-[3-(bis-methoxycarbonyl)methyl-1-oxo-2-cyclohexen-2-yl]carbonyl-2,3-dihydrobenzothiophene 1,1-dioxide] | 4 (70% or higher but less than 90%) | 5 (90% or higher (almost completely dead)) | 0 | 0 | 4 (70% or higher but less than 90%) | 5 (90% or higher (almost completely dead)) | 150.3 to 150.5 °C |
| CSC1Cc2c(Cl)c(C(=O)C3C(=O)CCCC3=O)cc(C)c2S1(=O)=O (stereo not drawn) [Compound No. 43, 4-chloro-7-methyl-2-methylthio-5-(1,3-dioxocyclohex-2-yl)carbonyl-2,3-dihydrobenzothiophene 1,1-dioxide] | 5 (90% or higher (almost completely dead)) | 5 (90% or higher (almost completely dead)) | 0 | 0 | 5 (90% or higher (almost completely dead)) | 5 (90% or higher (almost completely dead)) | 195.5 to 197 °C |
| CCSC1Cc2c(Cl)c(C(=O)C3C(=O)CCCC3=O)cc(C)c2S1(=O)=O (stereo not drawn) [Compound No. 44, 4-chloro-7-methyl-2-ethylthio-5-(1,3-dioxocyclohex-2-yl)carbonyl-2,3-dihydrobenzothiophene 1,1-dioxide] | 5 (90% or higher (almost completely dead)) | 5 (90% or higher (almost completely dead)) | 0 | 0 | 5 (90% or higher (almost completely dead)) | 5 (90% or higher (almost completely dead)) | 143.2 to 154.8 °C |
| CSC1Cc2c(Cl)c(C(=O)C3=C(SCCOC(=O)CCl)CCCC3=O)cc(C)c2S1(=O)=O (stereo not drawn) [Compound No. 51, 4-chloro-7-methyl-2-methylthio-5-[3-(2-chloroacetoxyethyl)thio-1-oxo-2-cyclohexen-2-yl]carbonyl-2,3-dihydrobenzothiophene 1,1-dioxide] | 4 (70% or higher but less than 90%) | 5 (90% or higher (almost completely dead)) | 0 | 0 | 4 (70% or higher but less than 90%) | 5 (90% or higher (almost completely dead)) | – |
| CSC1Cc2c(Cl)c(C(=O)C3=C(n4cccn4)CCCC3=O)cc(C)c2S1(=O)=O (stereo not drawn) [Compound No. 52, 4-chloro-7-methyl-2-methylthio-5-[3-(pyrazol-1-yl) -1-oxo-2-cyclohexen-2-yl]carbonyl-2,3-dihydrobenzothiophene 1,1-dioxide] | 4 (70% or higher but less than 90%) | 5 (90% or higher (almost completely dead)) | 0 | 0 | 4 (70% or higher but less than 90%) | 5 (90% or higher (almost completely dead)) | – |
